What all share (assay type): biochemical
Experiment [1] addresses T1, PI3K δ (Homo sapiens, UniProt O00329).
T1 construct: purchased Upstate / Millipore Corporation
The experiment in a line: PI 3-Kinase (human) HTRF assay, PI3K δ. The conditions noted are these: read-out: PI3K δ IC50. In general terms: TR-FRET usually uses a lanthanide donor and a delayed reading to cut background.

Experiment [2] concerns the target T2, mTOR (Homo sapiens, UniProt P42345).
T2 construct: purchased Invitrogen
The experiment in a line: mTOR kinase inhibition assay (radiometric or LanthaScreen TR-FRET). The conditions noted are these: read-out: mTORC IC50.

The target of experiment [3] is T3, PI3K α (p110α/p85α) (Homo sapiens, UniProt P42336).
T3 construct: purchased Upstate / Millipore Corporation
The experiment in a line: PI 3-Kinase (human) HTRF assay, PI3K α. The conditions noted are these: read-out: PI3K α IC50.
Description: (§1) Briefly, the assay is a time resolved FRET assay that indirectly measures PIP3 product formed by the activity of a PI3-K. The kinase reaction is performed in a microtiter plate (e.g., a 384 well microtiter plate). The total reaction volume is approximately 20 ul per well. In the first step, each well receives 2 ul of test compound in 20% dimethylsulphoxide resulting in a 2% DMSO final concentration. […] The plate is sealed and incubated for 15 minutes at room temperature. […] The plate is sealed and incubated for 1 hour at room temperature. The reaction is stopped by adding 5 ul of Stop Solution per well and then 5 ul of Detection Mix is added per well. The plate is sealed, incubated for 1 hour at room temperature, and then read on an appropriate plate reader. Data is analyzed and IC50s are generated using GraphPad Prism 5.

The target in experiment [4] is T4, PI3K β (p110β/p85α) (Homo sapiens, UniProt P42338).
T4 construct: purchased Upstate / Millipore Corporation
The experiment in a line: PI 3-Kinase (human) HTRF assay, PI3K β. The conditions noted are these: read-out: PI3K β IC50.
Description: as §1

Experiment [5] addresses T5, PI3K γ (p110γ) (Homo sapiens, UniProt P48736).
T5 construct: purchased Upstate / Millipore Corporation
Description: PI 3-Kinase (human) HTRF assay, PI3K γ. The conditions noted are these: read-out: PI3K γ IC50.

Where two headings read alike, the source gives them in different places.

T3 sequence (P42336 whole entry): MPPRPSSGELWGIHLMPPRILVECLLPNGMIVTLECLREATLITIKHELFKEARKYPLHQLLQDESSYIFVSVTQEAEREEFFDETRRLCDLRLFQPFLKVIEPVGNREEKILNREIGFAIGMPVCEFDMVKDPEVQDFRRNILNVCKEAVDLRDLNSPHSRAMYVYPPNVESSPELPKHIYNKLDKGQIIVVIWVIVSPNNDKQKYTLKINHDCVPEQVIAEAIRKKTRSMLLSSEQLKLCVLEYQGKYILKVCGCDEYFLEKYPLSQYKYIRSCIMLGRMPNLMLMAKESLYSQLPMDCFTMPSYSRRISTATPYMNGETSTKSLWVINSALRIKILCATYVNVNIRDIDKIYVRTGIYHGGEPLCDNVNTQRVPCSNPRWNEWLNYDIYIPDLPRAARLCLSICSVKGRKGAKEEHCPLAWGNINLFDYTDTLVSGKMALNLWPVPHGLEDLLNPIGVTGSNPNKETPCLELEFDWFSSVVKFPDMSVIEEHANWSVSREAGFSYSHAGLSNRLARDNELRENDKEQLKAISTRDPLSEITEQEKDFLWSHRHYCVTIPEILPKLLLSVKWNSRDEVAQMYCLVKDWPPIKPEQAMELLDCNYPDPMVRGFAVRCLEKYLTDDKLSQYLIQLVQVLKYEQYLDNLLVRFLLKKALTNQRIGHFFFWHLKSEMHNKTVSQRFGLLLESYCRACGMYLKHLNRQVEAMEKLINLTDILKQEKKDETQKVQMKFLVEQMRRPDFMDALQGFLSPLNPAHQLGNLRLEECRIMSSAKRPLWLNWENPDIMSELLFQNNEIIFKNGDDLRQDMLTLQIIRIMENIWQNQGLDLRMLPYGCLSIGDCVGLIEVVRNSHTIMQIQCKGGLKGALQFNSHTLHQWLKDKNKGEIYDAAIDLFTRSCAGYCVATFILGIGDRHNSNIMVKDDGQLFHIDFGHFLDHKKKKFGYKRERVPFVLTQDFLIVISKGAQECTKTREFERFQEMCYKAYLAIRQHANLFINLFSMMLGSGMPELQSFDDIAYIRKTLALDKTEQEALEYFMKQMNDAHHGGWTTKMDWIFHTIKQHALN
T3 sequence (P27986 whole entry partner): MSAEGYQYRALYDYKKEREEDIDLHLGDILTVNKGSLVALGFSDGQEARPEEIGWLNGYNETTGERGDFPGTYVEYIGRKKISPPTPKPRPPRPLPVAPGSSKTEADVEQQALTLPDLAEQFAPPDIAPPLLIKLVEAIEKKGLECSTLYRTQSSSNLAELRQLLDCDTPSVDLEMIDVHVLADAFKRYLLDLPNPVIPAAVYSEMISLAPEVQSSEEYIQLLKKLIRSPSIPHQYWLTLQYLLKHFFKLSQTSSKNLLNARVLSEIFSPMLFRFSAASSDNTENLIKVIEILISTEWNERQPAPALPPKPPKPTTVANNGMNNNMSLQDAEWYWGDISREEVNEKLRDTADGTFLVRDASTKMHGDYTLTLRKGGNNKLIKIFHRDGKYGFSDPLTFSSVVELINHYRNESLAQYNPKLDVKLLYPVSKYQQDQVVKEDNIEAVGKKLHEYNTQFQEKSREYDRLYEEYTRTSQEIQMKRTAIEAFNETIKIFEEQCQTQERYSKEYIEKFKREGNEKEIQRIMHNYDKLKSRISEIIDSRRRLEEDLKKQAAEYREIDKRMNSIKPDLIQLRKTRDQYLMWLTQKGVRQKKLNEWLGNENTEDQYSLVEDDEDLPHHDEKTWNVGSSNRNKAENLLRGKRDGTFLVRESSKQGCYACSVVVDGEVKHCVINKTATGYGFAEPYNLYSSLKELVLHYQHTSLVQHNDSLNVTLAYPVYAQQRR
T4 sequence (P42338 whole entry): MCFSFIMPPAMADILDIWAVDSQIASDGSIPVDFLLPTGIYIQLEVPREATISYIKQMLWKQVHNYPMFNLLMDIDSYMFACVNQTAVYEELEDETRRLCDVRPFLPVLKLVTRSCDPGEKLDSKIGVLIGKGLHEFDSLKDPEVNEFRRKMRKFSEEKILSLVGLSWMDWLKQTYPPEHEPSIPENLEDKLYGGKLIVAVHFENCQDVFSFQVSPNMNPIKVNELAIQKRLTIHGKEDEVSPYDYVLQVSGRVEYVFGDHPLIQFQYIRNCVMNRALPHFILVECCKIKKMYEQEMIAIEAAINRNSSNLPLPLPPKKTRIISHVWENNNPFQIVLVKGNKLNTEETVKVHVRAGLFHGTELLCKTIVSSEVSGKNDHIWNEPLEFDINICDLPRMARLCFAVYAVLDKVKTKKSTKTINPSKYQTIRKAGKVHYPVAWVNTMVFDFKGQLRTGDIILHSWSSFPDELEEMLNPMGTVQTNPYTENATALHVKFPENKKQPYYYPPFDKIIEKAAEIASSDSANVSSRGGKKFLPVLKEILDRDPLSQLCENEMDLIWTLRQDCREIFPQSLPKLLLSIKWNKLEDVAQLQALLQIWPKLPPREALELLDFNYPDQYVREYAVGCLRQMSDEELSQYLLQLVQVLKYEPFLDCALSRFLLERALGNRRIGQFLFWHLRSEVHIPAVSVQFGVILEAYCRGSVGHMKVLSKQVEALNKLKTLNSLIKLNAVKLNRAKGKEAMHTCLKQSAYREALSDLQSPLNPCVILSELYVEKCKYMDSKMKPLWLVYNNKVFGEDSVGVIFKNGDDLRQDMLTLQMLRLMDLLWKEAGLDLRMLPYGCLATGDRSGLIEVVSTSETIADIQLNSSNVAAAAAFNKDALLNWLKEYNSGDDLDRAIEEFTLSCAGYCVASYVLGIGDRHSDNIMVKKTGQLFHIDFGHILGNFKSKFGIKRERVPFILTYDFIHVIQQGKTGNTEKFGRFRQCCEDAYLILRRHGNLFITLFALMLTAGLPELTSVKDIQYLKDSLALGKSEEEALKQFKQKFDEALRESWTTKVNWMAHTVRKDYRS
T4 sequence (P27986 whole entry partner): as the sequence (P27986 whole entry partner) above
T1 sequence (O00329 whole entry): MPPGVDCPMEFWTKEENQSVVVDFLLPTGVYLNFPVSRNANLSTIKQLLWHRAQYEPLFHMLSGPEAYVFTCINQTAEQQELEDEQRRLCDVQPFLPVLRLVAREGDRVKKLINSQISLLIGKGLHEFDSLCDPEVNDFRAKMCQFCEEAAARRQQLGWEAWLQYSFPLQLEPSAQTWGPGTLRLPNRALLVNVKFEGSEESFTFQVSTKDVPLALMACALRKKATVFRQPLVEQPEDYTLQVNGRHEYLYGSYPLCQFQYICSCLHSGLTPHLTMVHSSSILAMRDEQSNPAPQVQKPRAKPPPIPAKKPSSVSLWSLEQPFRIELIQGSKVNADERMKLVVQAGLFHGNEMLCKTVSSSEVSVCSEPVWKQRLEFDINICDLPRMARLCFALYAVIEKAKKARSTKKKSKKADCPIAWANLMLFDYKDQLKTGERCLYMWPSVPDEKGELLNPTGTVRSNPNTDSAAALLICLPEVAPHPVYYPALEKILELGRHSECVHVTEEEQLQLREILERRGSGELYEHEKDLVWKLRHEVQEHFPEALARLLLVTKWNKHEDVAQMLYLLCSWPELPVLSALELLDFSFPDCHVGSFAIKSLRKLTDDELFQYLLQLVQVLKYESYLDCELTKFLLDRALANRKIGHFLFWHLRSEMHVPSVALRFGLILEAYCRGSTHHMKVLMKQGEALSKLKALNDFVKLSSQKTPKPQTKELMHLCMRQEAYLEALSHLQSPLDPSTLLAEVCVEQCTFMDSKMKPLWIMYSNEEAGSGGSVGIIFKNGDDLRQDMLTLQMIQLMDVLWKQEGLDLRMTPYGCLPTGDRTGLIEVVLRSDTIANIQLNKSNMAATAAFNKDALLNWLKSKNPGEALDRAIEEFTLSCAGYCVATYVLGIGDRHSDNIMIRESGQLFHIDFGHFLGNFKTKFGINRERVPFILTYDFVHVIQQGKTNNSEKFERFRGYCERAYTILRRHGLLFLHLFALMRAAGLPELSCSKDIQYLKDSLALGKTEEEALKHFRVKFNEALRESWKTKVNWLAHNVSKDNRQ
T1 sequence (P27986 whole entry partner): as the sequence (P27986 whole entry partner) above
T5 sequence (P48736 whole entry): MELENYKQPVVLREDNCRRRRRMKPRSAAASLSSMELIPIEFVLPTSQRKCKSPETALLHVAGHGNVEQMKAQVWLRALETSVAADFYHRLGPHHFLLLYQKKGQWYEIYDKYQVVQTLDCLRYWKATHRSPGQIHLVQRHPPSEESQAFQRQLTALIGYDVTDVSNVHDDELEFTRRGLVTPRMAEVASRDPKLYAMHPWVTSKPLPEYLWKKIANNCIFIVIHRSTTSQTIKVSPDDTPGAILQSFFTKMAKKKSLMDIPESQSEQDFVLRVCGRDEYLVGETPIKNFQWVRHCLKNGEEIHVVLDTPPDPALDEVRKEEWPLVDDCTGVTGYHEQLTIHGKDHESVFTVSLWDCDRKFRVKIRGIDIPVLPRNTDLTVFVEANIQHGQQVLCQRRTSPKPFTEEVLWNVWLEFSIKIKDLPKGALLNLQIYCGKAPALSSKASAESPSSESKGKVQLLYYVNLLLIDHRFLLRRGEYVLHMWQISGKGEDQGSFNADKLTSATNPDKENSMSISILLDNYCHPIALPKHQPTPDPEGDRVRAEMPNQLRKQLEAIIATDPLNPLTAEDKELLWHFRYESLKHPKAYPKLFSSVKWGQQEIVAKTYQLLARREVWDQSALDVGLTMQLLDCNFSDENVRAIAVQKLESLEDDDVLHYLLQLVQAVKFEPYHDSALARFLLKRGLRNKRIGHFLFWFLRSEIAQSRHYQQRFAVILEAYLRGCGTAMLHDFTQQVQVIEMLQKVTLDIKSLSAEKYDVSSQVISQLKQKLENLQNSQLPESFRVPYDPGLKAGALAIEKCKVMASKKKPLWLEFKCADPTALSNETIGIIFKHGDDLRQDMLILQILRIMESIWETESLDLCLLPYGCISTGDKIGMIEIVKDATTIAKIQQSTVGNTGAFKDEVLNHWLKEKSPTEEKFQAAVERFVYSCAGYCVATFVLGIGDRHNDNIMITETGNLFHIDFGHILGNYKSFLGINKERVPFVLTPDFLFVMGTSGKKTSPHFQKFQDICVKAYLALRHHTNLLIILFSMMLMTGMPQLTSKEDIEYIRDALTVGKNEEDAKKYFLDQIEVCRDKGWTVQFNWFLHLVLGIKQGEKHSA

`Nc1nc2cc(-c3ccc4ncc(-c5ccnc(N6CCOCC6)c5)n4c3)ccc2o1` [Compound 52]: the IC50 in experiment [1] is less than 0.1 µM; in experiment [2] it was less than 10 µM; in experiment [3], less than 100 nM.
In the case of `N#Cc1cnc2ccc(-c3ccc4oc(N)nc4c3)cc2c1Cl` [Compound 77], the IC50 in experiment [2] was less than 1 µM.
Regarding `Nc1nc2cc(-c3ccc4oc(N)nc4c3)ccc2o1` [Compound 240], the IC50 in experiment [1] is less than 10 µM; in experiment [2] it was less than 10 µM; in experiment [3] it was less than 1000 nM.
For the compound `CC(C)N1CCC(n2cnc3ccc(-c4cncc(NS(C)(=O)=O)c4)cc3c2=O)CC1` [Compound 520], the IC50 is greater than 10 µM in experiment [1], greater than 10 µM in experiment [4], greater than 10 µM in experiment [5] and greater than 10000 nM in experiment [3].
For the compound `COc1ncc(-c2ccc3ncn(C4CCN(C(C)C)CC4)c(=O)c3c2)cc1NS(=O)(=O)c1ccccc1` [Compound 522], the IC50 in experiment [1] is less than 0.1 µM; in experiment [4] it was less than 0.1 µM; in experiment [5], less than 0.1 µM; in experiment [3], less than 100 nM.
Take `CC(C)N1CCC(n2cnc3ccc(-c4cnc(Cl)c(NS(C)(=O)=O)c4)cc3c2=O)CC1` [Compound 523]: the IC50 in experiment [1] was less than 0.1 µM; in experiment [4], less than 1 µM; in experiment [5], less than 0.1 µM; in experiment [3], less than 100 nM.
`COc1ncc(-c2ccc3ncn(C4CCN(C)CC4)c(=O)c3c2)cc1NS(=O)(=O)c1ccccc1` [Compound 524]: the IC50 in experiment [1] is less than 0.1 µM; in experiment [4], less than 0.1 µM; in experiment [5], less than 1 µM; in experiment [3], less than 100 nM.
For the compound `COc1ncc(-c2ccc3ncn(C4CCN(C)CC4)c(=O)c3c2)cc1NS(C)(=O)=O` [Compound 525], the IC50 in experiment [1] was less than 0.1 µM; in experiment [4], less than 1 µM; in experiment [5], less than 10 µM; in experiment [3] it was less than 100 nM.
On the same counts, the results for `CN1CCC(n2cnc3ccc(-c4cnc(Cl)c(NS(C)(=O)=O)c4)cc3c2=O)CC1` [Compound 526] are less than 1 µM, less than 10 µM, greater than 10 µM and less than 100 nM.
As to `CN1CCC(n2cnc3ccc(-c4cnc(Cl)c(NS(=O)(=O)c5ccccc5)c4)cc3c2=O)CC1` [Compound 527], the IC50 was less than 0.1 µM in experiment [1], less than 0.1 µM in experiment [4], less than 1 µM in experiment [5] and less than 100 nM in experiment [3].
With `CN1CC(n2cnc3ccc(-c4ccc5oc(N)nc5c4)cc3c2=O)C1` [Compound 528], the IC50 is greater than 10 µM in experiment [1], less than 10 µM in experiment [4], greater than 10 µM in experiment [5] and less than 1000 nM in experiment [3].
As to `CN1CC2CN(C(=O)c3cnc4ccc(-c5ccc6oc(N)nc6c5)cn34)CC2C1` (stereo not drawn) [Compound 533], the IC50 in experiment [1] is less than 1 µM; in experiment [4], less than 1 µM; in experiment [5], less than 1 µM; in experiment [3], less than 100 nM.
As for `O=C(c1cnc2ccc(-c3cnc4cn[nH]c4c3)cn12)N1CCOCC1` [Compound 535], the 50% inhibitory concentration (IC50) in experiment [1] was greater than 10 µM; in experiment [4] it was greater than 10 µM; in experiment [5] it was greater than 10 µM; in experiment [3] it was less than 10000 nM.
Consider `Nc1nc2cc(-c3cnc4ccc(C(=O)N5C6CCC5COC6)cn34)ccc2o1` [Compound 540], for which the IC50 in experiment [1] is greater than 10 µM; in experiment [4] it was greater than 10 µM; in experiment [5], greater than 10 µM; in experiment [3], greater than 10000 nM.
In the case of `CN1CCN(c2nnc3ccc(-c4ccc5nc(N)oc5c4)cn23)CC1` [Compound 542], the IC50 in experiment [1] was greater than 10 µM; in experiment [4], greater than 10 µM; in experiment [5] it was greater than 10 µM; in experiment [3] it was greater than 10000 nM.
Turning to `Nc1nc2ccc(-c3ccc4ncc(C(=O)N5CCOCC5)n4c3)cc2[nH]1` [Compound 544], the IC50 is greater than 10 µM in experiment [1], greater than 10 µM in experiment [4], greater than 10 µM in experiment [5] and less than 1000 nM in experiment [3].
On to `CN1CCN(CCc2nnc3ccc(-c4ccc5nc(N)oc5c4)cn23)CC1` [Compound 545], for which the IC50 is greater than 10 µM in experiment [1], greater than 10 µM in experiment [4], greater than 10 µM in experiment [5] and greater than 10000 nM in experiment [3].
Turning to `Cc1cc(-c2ccc3nc(N)oc3c2)cn2c(N3CCN(C)CC3)nnc12` [Compound 546], the IC50 was greater than 10 µM in experiment [1], greater than 10 µM in experiment [4], greater than 10 µM in experiment [5] and greater than 10000 nM in experiment [3].
For the compound `CN1CCN(Cc2nnc3ccc(-c4ccc5nc(N)oc5c4)cn23)CC1` [Compound 547], the IC50 is greater than 10 µM in experiment [1], greater than 10 µM in experiment [4], greater than 10 µM in experiment [5] and greater than 10000 nM in experiment [3].
For the compound `Cc1cc(-c2ccc3nc(N)oc3c2)cn2c(CCN3CCN(C)CC3)nnc12` [Compound 548], the IC50 in experiment [1] was greater than 10 µM; in experiment [4] it was greater than 10 µM; in experiment [5], greater than 10 µM; in experiment [3], greater than 10000 nM.
Consider `Cc1cc(-c2ccc3nc(N)oc3c2)cn2c(CN3CCN(C)CC3)nnc12` [Compound 549], for which the IC50 is greater than 10 µM in experiment [1], greater than 10 µM in experiment [4], greater than 10 µM in experiment [5] and greater than 10000 nM in experiment [3].
For `Nc1nc2cc(-c3ccc4ncc(C(=O)NCCOCC(=O)O)n4c3)ccc2o1` [Compound 551], the concentration for half-maximal inhibition (IC50) in experiment [1] was less than 10 µM; in experiment [4], less than 1 µM; in experiment [5], less than 0.1 µM; in experiment [3], less than 100 nM.
`Nc1nc2cc(-c3ccc4nc(N5CCOCC5)cnc4n3)ccc2o1` [Compound 558]: the IC50 in experiment [1] (Table 4 (PI3K α inhibitors)) is greater than 10 µM; in experiment [4] (Table 4 (PI3K α inhibitors)), greater than 10 µM; in experiment [5] (Table 4 (PI3K α inhibitors)), greater than 10 µM; in experiment [3] (Table 4 (PI3K α inhibitors)), greater than 10000 nM.
As for `Nc1nc2cc(-c3ccc4ncc(N5CCC(F)(F)CC5)nc4n3)ccc2o1` [Compound 564], the IC50 in experiment [1] (Table 4 (PI3K α inhibitors)) is greater than 10 µM; in experiment [4] (Table 4 (PI3K α inhibitors)), greater than 10 µM; in experiment [5] (Table 4 (PI3K α inhibitors)), less than 0.1 µM; in experiment [3] (Table 4 (PI3K α inhibitors)), less than 100 nM.
Turning to `CC1(C)CN(C2CN(c3cnc4ccc(-c5ccc6oc(N)nc6c5)nc4n3)C2)CCO1` [Compound 568], the IC50 in experiment [1] (Table 4 (PI3K α inhibitors)) was greater than 10 µM; in experiment [4] (Table 4 (PI3K α inhibitors)) it was greater than 10 µM; in experiment [5] (Table 4 (PI3K α inhibitors)) it was less than 10 µM; in experiment [3] (Table 4 (PI3K α inhibitors)), less than 1000 nM.
`Nc1nc2cc(-c3ccc4ncc(N5CCOCC5)cc4n3)ccc2o1` [Compound 573]: the half-inhibitory concentration (IC50) in experiment [1] (Table 4 (PI3K α inhibitors)) is greater than 10 µM; in experiment [4] (Table 4 (PI3K α inhibitors)), less than 1 µM; in experiment [5] (Table 4 (PI3K α inhibitors)) it was less than 0.1 µM; in experiment [3] (Table 4 (PI3K α inhibitors)) it was less than 100 nM.
For `C[C@H](N)C(=O)N1CCN(c2cnc3ccc(-c4ccc5oc(N)nc5c4)nc3n2)CC1` [Compound 581] the same measures were less than 0.1 µM, less than 0.1 µM, less than 0.1 µM and less than 100 nM.
For `Nc1nc2cc(-c3ccc4ncc(N5CC(N6CCNCC6)C5)nc4n3)ccc2o1` [Compound 585], the IC50 was greater than 10 µM in experiment [1] (Table 4 (PI3K α inhibitors)), greater than 10 µM in experiment [4] (Table 4 (PI3K α inhibitors)), greater than 10 µM in experiment [5] (Table 4 (PI3K α inhibitors)) and less than 1000 nM in experiment [3] (Table 4 (PI3K α inhibitors)).
Take `Nc1nc2cc(-c3ccc4ncc(N5CC(N6CCN(CC7CC7)CC6)C5)nc4n3)ccc2o1` [Compound 586]: the half-maximal inhibitory concentration (IC50) in experiment [2] (Table 4 (PI3K α inhibitors)) is greater than 10 µM; in experiment [3] (Table 4 (PI3K α inhibitors)) it was less than 100 nM.
`C[C@H](N)C(=O)N1CCN(c2cnc3ccc(-c4ccc5oc(N)nc5c4)nc3c2)CC1` [Compound 589]: the IC50 in experiment [1] (Table 4 (PI3K α inhibitors)) was less than 1 µM; in experiment [4] (Table 4 (PI3K α inhibitors)), less than 1 µM; in experiment [5] (Table 4 (PI3K α inhibitors)) it was less than 1 µM; in experiment [3] (Table 4 (PI3K α inhibitors)), less than 100 nM.
As to `C[C@@H](N)C(=O)N1CCN(c2cnc3ccc(-c4ccc5oc(N)nc5c4)nc3c2)CC1` [Compound 590], the IC50 in experiment [1] (Table 4 (PI3K α inhibitors)) was less than 1 µM; in experiment [4] (Table 4 (PI3K α inhibitors)), less than 0.1 µM; in experiment [5] (Table 4 (PI3K α inhibitors)), less than 1 µM; in experiment [3] (Table 4 (PI3K α inhibitors)) it was less than 100 nM.
In the case of `CC(C)(N)C(=O)N1CCN(c2cnc3ccc(-c4ccc5oc(N)nc5c4)nc3n2)CC1` [Compound 591], the IC50 is greater than 10 µM in experiment [2] (Table 4 (PI3K α inhibitors)) and less than 100 nM in experiment [3] (Table 4 (PI3K α inhibitors)).
Turning to `Nc1nc2cc(-c3ccc4ncc(N5CCN(C(=O)C6(N)CC6)CC5)cc4n3)ccc2o1` [Compound 593], the IC50 was less than 1 µM in experiment [1] (Table 4 (PI3K α inhibitors)), less than 1 µM in experiment [4] (Table 4 (PI3K α inhibitors)), less than 0.1 µM in experiment [5] (Table 4 (PI3K α inhibitors)) and less than 100 nM in experiment [3] (Table 4 (PI3K α inhibitors)).
On to `Nc1nc2cc(-c3ccc4ncc(N5CC(N6CCN(CCO)CC6)C5)nc4n3)ccc2o1` [Compound 597], for which the figures for the IC50 in experiment [2] (Table 4 (PI3K α inhibitors)) and in experiment [3] (Table 4 (PI3K α inhibitors)) were greater than 10 µM and less than 100 nM, respectively.
On the same counts, the results for `Cc1nccn1C1CN(c2cnc3ccc(-c4ccc5oc(N)nc5c4)nc3n2)C1` [Compound 601] are greater than 10 µM and less than 100 nM.
Turning to `CC1(C)CN(C2CN(c3cnc4ccc(-c5ccc6oc(N)nc6c5)nc4n3)C2)CCN1` [Compound 603], the figures for the IC50 in experiment [1] (Table 4 (PI3K α inhibitors)), in experiment [2] (Table 4 (PI3K α inhibitors)) and in experiment [3] (Table 4 (PI3K α inhibitors)) were less than 1 µM, greater than 10 µM and less than 100 nM, respectively.
`C[C@H]1CN(C2CN(c3cnc4ccc(-c5ccc6oc(N)nc6c5)nc4c3)C2)CCN1` [Compound 605]: the values for the IC50 in experiment [1] (Table 4 (PI3K α inhibitors)), in experiment [2] (Table 4 (PI3K α inhibitors)) and in experiment [3] (Table 4 (PI3K α inhibitors)) were less than 1 µM, greater than 10 µM and less than 100 nM, respectively.
On the same counts, the results for `Nc1nc2cc(-c3ccc4ncc(N5CC(N6CCN(CC7CC7)CC6)C5)cc4n3)ccc2o1` [Compound 611] are less than 1 µM, greater than 10 µM and less than 100 nM.
On the same counts, the results for `CN1CCN(C2CN(c3cnc4ccc(-c5ccc6oc(N)nc6c5)nc4n3)C2)CC1` [Compound 622] are less than 1 µM, greater than 10 µM and less than 100 nM.
Turning to `CCN1CCN(C2CN(c3cnc4ccc(-c5ccc6oc(N)nc6c5)nc4n3)C2)CC1` [Compound 627], the IC50 was less than 10 µM in experiment [2] (Table 4 (PI3K α inhibitors)) and less than 100 nM in experiment [3] (Table 4 (PI3K α inhibitors)).

As a reminder, the IC50 is the concentration needed to halve the response being measured.

Values taken from patent publication US20150087627A1, “COMBINATION OF KINASE INHIBITORS AND USES THEREOF” (Intellikine LLC, priority 2011, published 2015).
